{
  "source": "patent US9480679B2",
  "about": "“Methods for treating malaria, tuberculosis and MAC diseases” (priority 2009, dated 2016)",
  "key": {"[1]": {"system": "non-replicating M. tuberculosis", "assay": "Low Oxygen Recovery Assay (LORA), non-replicating culture", "type": "cell-based", "settings": "non-replicating culture (anaerobic); two experiments"}, "[2]": {"type": "in vitro ADME", "settings": "24 h", "description": "EXAMPLE. Intracellular activity of CEM-101. […] After 24 hours, the intracellular concentration of CEM-101 was more than 2-fold higher than any of azithromycin, clarithromycin, and telithromycin, in decreasing order of ability for intracellular accumulation. CEM-101 intracellular accumulation was dose dependent."}, "P. berghei blood stages": {"system": "P. berghei blood stages", "assay": "Blood stage treatment of P. berghei-infected mice, 3 day PO or SC dosing", "type": "in vivo", "settings": "blood stage infections"}, "[3]": {"system": "P. falciparum lines Dd2 and 7G8 and azithromycin-resistant lines", "assay": "Fidock lab 96 hours assay on P. falciparum lines", "type": "cell-based", "text": "EXAMPLE. CEM101 is active when tested against Azi resistant strain (Fidock)."}, "[4]": {"system": "replicating M. tuberculosis", "assay": "Microplate Alamar Blue Assay (MABA), replicating culture", "type": "cell-based", "settings": "two experiments"}},
  "note": "Values joined by “and” are separate entries in the source; they are usually repeats but may differ in a detail not shown here. Identical values can stand only once. Like-named read-outs stand apart in the source and are kept apart here.",
  "data": [
    {"compound": "CC[C@H]1OC(=O)[C@@](C)(F)C(=O)[C@H](C)[C@@H](O[C@@H]2O[C@H](C)C[C@H](N(C)C)[C@H]2O)[C@](C)(OC)C[C@@H](C)C(=O)[C@H](C)[C@H]2N(CCCCn3cc(-c4cccc(N)c4)nn3)C(=O)O[C@]12C", "note": "[CEM-101, solithromycin]", "values": [
      {"measurement": "LORA", "setting": "[1]", "value": "10.43 µM and 7.55 µM"},
      {"measurement": "intracellular concentration relative to azithromycin, clarithromycin and telithromycin", "setting": "[2]", "value": "more than 2 fold"},
      {"measurement": "minimum active dose for PO route", "setting": "P. berghei blood stages; PO", "value": 80, "unit": "mg/kg/d×3"},
      {"measurement": "minimum curative SC dose", "setting": "P. berghei blood stages; SC", "value": 40, "unit": "mg/kg/d×3 days"},
      {"measurement": "IC50", "setting": "[3]; Plasmodium falciparum, 96 h, line 7G8 (multidrug resistant), 96 hours, read-out: Mean IC50", "value": 0.0185, "unit": "µM"},
      {"measurement": "IC50", "setting": "[3]; Plasmodium falciparum, 96 h, line AZR 7G8-R1, 96 hours, read-out: Mean IC50", "value": 0.0802, "unit": "µM"},
      {"measurement": "IC50", "setting": "[3]; Plasmodium falciparum, 96 h, line AZR Dd2-R2, 96 hours, runs 1-3, read-out: IC50", "value": 0.0732, "unit": "µM"},
      {"measurement": "IC50", "setting": "[3]; Plasmodium falciparum, 96 h, line AZR Dd2-R2, 96 hours, read-out: Mean IC50", "value": 0.0691, "unit": "µM"},
      {"measurement": "IC50", "setting": "[3]; Plasmodium falciparum, 96 h, line Dd2 (multidrug resistant), 96 hours, read-out: Mean IC50", "value": 0.0386, "unit": "µM"},
      {"measurement": "IC50", "setting": "[3]; line AZR Dd2-R2, 96 hours, runs 1-3, read-out: IC50", "value": "0.0645 µM and 0.0697 µM"},
      {"measurement": "MIC", "setting": "[4]; Mycobacterium tuberculosis", "value": 9.23, "unit": "µM"},
      {"measurement": "MIC", "setting": "[4]", "value": 9.17, "unit": "µM"}
    ]}
  ]
}
